Experiment [1] has as its system Staphylococcus aureus SAU.42 (ATCC 29213). Type of experiment: cell-based. The method, boiled down:
(§1)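 Susceptibility is measured by modified CLSI broth microdilution using calcium-supplemented Mueller Hinton broth (50 mg/L) and an inoculum of 5×10^5 bacteria. MIC values in μg/mL mark the lowest concentration that leaves no visible turbidity.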

For experiment [2], the system named is Enterococcus faecalis EFS.201 (ATCC 49452). Type of experiment: cell-based. The method, boiled down:
as §1

Experiment [3] concerns Enterococcus faecium EFM.14 (ATCC 6569). It is filed as cell-based. In outline:
as §1

Experiment [4] concerns Staphylococcus aureus SAU.399 (ATCC 43300), Methicillin and Oxacillin Resistant. Type of experiment: cell-based. The method, boiled down: as §1
Experiment [5] concerns Enterococcus faecium EFM.384, Daptomycin resistant mutant (14-A). Type of experiment: cell-based. The note with it: MHBc with 50 mg/L calcium, 18-20 hours at 37° C. The method, boiled down:
as §1

Experiment [6] concerns Enterococcus faecalis EFS.312, Daptomycin resistant mutant (EFA). It is filed as cell-based. The note with it: MHBc with 50 mg/L calcium, 18-20 hours at 37° C. In outline: as §1
Experiment [7] has as its system Staphylococcus aureus SAU.278, Daptomycin resistant mutant (D10). It is filed as cell-based. The note with it: MHBc with 50 mg/L calcium, 18-20 hours at 37° C. In outline:
as §1

Where [8] appears, read: MHBc with 50 mg/L calcium, 18-20 hours at 37° C.

SMILES strings stand for the structures. Like-named read-outs stand apart in the source and are kept apart here.

Regarding `CCCCCCCCCC(C)NC(=O)N[C@@H](Cc1c[nH]c2ccccc12)C(=O)N[C@H](CC(N)=O)C(=O)N[C@@H](CC(=O)O)C(=O)N[C@@H]1C(=O)NCC(=O)N[C@@H](CCCN)C(=O)N[C@@H](CC(=O)O)C(=O)N[C@H](C)C(=O)N[C@@H](CC(=O)O)C(=O)NCC(=O)N[C@H](CO)C(=O)N[C@@H]([C@H](C)CC(=O)O)C(=O)N[C@@H](CC(=O)c2ccccc2N)C(=O)O[C@@H]1C` (single isomer, unassigned) [14 isomer II], the “Sa42 MIC” value in experiment [1] (ATCC 29213) was 0.25 µg/mL. Also, the “Efs201 MIC” value in experiment [2] (ATCC 49452) was determined as 0.5 µg/mL. Besides, in experiment [3] (ATCC 6569), the “Efm14 MIC” value came out at 0.25 µg/mL. In experiment [4] (ATCC 43300), the “Sa399 MIC” value was determined as 0.25 µg/mL. Moreover, in experiment [5], the “Efm384 MIC” value worked out at 8 µg/mL. Besides, the “Efs312 MIC” value in experiment [6] was determined as 16 µg/mL. Besides, the “Sa278 MIC” value in experiment [7] stood at 1 µg/mL. Further, in the experiment on Clostridium difficile, the “C. diff MIC90” value turned out to be 2 µg/mL.
For the compound `CCCCCCCCCC(C)NC(=O)N[C@@H](Cc1c[nH]c2ccccc12)C(=O)N[C@H](CC(N)=O)C(=O)N[C@@H](CC(=O)O)C(=O)N[C@@H]1C(=O)NCC(=O)N[C@@H](CCCN)C(=O)N[C@@H](CC(=O)O)C(=O)N[C@H](C)C(=O)N[C@@H](CC(=O)O)C(=O)NCC(=O)N[C@H](CO)C(=O)N[C@@H]([C@H](C)CC(=O)O)C(=O)N[C@@H](CC(=O)c2ccccc2N)C(=O)O[C@@H]1C` (single isomer, unassigned) [14 isomer I], the “Sa42 MIC” value in experiment [1] (ATCC 29213) came to 0.25 µg/mL. Moreover, in experiment [2] (ATCC 49452), the “Efs201 MIC” value came out at 1 µg/mL. For the same compound, the “Efm14 MIC” value in experiment [3] (ATCC 6569) amounted to 0.5 µg/mL. Also, the “Sa399 MIC” value in experiment [4] (ATCC 43300) came to 0.5 µg/mL. Further, the “Efm384 MIC” value in experiment [5] stood at 8 µg/mL. For the same compound, the “Efs312 MIC” value in experiment [6] came to 32 µg/mL. Moreover, in experiment [7], the “Sa278 MIC” value was 1 µg/mL. Moreover, the “C. diff MIC90” value in the experiment on Clostridium difficile worked out at 1.0 µg/mL.
In the case of `CCCCCCCCC1CC1C(=O)N[C@@H](Cc1c[nH]c2ccccc12)C(=O)N[C@H](CC(N)=O)C(=O)N[C@@H](CC(=O)O)C(=O)N[C@@H]1C(=O)NCC(=O)N[C@@H](CCCN)C(=O)N[C@@H](CC(=O)O)C(=O)N[C@H](C)C(=O)N[C@@H](CC(=O)O)C(=O)NCC(=O)N[C@H](CO)C(=O)N[C@@H]([C@H](C)CC(=O)O)C(=O)N[C@@H](CC(=O)c2ccccc2N)C(=O)O[C@@H]1C` (single isomer, unassigned) [27 isomer II], in experiment [1] (ATCC 29213), the “Sa42 MIC” value stood at 1 µg/mL. Further, the “Efs201 MIC” value in experiment [2] (ATCC 49452) was determined as 0.5 µg/mL. In experiment [3] (ATCC 6569), the “Efm14 MIC” value was 1 µg/mL. In experiment [4] (ATCC 43300), the “Sa399 MIC” value turned out to be 0.5 µg/mL. Also, the “Efm384 MIC” value in experiment [5] worked out at 4 µg/mL. For the same compound, the “Efs312 MIC” value in experiment [6] came out at 32 µg/mL. In addition, the “Sa278 MIC” value in experiment [7] was found to be 2 µg/mL. For the same compound, in the experiment with Clostridium difficile, the “C. diff MIC90” value amounted to 1 µg/mL.
For the compound `CCCCCCCCC1CC1C(=O)N[C@@H](Cc1c[nH]c2ccccc12)C(=O)N[C@H](CC(N)=O)C(=O)N[C@@H](CC(=O)O)C(=O)N[C@@H]1C(=O)NCC(=O)N[C@@H](CCCN)C(=O)N[C@@H](CC(=O)O)C(=O)N[C@H](C)C(=O)N[C@@H](CC(=O)O)C(=O)NCC(=O)N[C@H](CO)C(=O)N[C@@H]([C@H](C)CC(=O)O)C(=O)N[C@@H](CC(=O)c2ccccc2N)C(=O)O[C@@H]1C` (single isomer, unassigned) [27 isomer I], the “Sa42 MIC” value in experiment [1] (ATCC 29213) turned out to be 2 µg/mL. Further, in experiment [2] (ATCC 49452), the “Efs201 MIC” value is 2 µg/mL. For the same compound, in experiment [3] (ATCC 6569), the “Efm14 MIC” value was found to be 4 µg/mL. Also, the “Sa399 MIC” value in experiment [4] (ATCC 43300) was 2 µg/mL. The “Efm384 MIC” value in experiment [5] turned out to be 32 µg/mL. Besides, the “Efs312 MIC” value in experiment [6] worked out at 32 µg/mL. For the same compound, the “Sa278 MIC” value in experiment [7] came out at 8 µg/mL. The “C. diff MIC90” value in the experiment with Clostridium difficile came out at 2 µg/mL.
For `CC(C)Cc1ccc(C(C)C(=O)N[C@@H](Cc2c[nH]c3ccccc23)C(=O)N[C@H](CC(N)=O)C(=O)N[C@@H](CC(=O)O)C(=O)N[C@@H]2C(=O)NCC(=O)N[C@@H](CCCN)C(=O)N[C@@H](CC(=O)O)C(=O)N[C@H](C)C(=O)N[C@@H](CC(=O)O)C(=O)NCC(=O)N[C@H](CO)C(=O)N[C@@H]([C@H](C)CC(=O)O)C(=O)N[C@@H](CC(=O)c3ccccc3N)C(=O)O[C@@H]2C)cc1` (single isomer, unassigned) [45 isomer II], the “Sa42 MIC” value in experiment [1] (ATCC 29213) turned out to be 4 µg/mL. In addition, the “Efs201 MIC” value in experiment [2] (ATCC 49452) was determined as 32 µg/mL. Besides, the “Efm14 MIC” value in experiment [3] (ATCC 6569) worked out at 32 µg/mL. Also, the “Sa399 MIC” value in experiment [4] (ATCC 43300) turned out to be 4 µg/mL. Moreover, in experiment [5], the “Efm384 MIC” value is above 32 µg/mL. In addition, the “Efs312 MIC” value in experiment [6] was above 32 µg/mL. For the same compound, the “Sa278 MIC” value in experiment [7] is above 32 µg/mL. For the same compound, the “C. diff MIC90” value in the experiment on Clostridium difficile was found to be 8 µg/mL.
On to `CC(C)Cc1ccc(C(C)C(=O)N[C@@H](Cc2c[nH]c3ccccc23)C(=O)N[C@H](CC(N)=O)C(=O)N[C@@H](CC(=O)O)C(=O)N[C@@H]2C(=O)NCC(=O)N[C@@H](CCCN)C(=O)N[C@@H](CC(=O)O)C(=O)N[C@H](C)C(=O)N[C@@H](CC(=O)O)C(=O)NCC(=O)N[C@H](CO)C(=O)N[C@@H]([C@H](C)CC(=O)O)C(=O)N[C@@H](CC(=O)c3ccccc3N)C(=O)O[C@@H]2C)cc1` (single isomer, unassigned) [45 isomer I], for which, in experiment [1] (ATCC 29213), the “Sa42 MIC” value worked out at 8 µg/mL. Also, the “Efs201 MIC” value in experiment [2] (ATCC 49452) is above 32 µg/mL. Also, the “Efm14 MIC” value in experiment [3] (ATCC 6569) was above 32 µg/mL. For the same compound, the “Sa399 MIC” value in experiment [4] (ATCC 43300) was 8 µg/mL. Also, the “Efm384 MIC” value in experiment [5] was above 32 µg/mL. Also, the “Efs312 MIC” value in experiment [6] was above 32 µg/mL. For the same compound, the “Sa278 MIC” value in experiment [7] is above 32 µg/mL. In addition, in the experiment on Clostridium difficile, the “C. diff MIC90” value is 32 µg/mL.
In the case of `CCCC1CCC(c2ccc(C(=O)N[C@@H](Cc3c[nH]c4ccccc34)C(=O)N[C@H](CC(N)=O)C(=O)N[C@@H](CC(=O)O)C(=O)N[C@@H]3C(=O)NCC(=O)N[C@@H](CCCN)C(=O)N[C@@H](CC(=O)O)C(=O)N[C@H](C)C(=O)N[C@@H](CC(=O)O)C(=O)NCC(=O)N[C@H](CO)C(=O)N[C@@H]([C@H](C)CC(=O)O)C(=O)N[C@@H](CC(=O)c4ccccc4N)C(=O)O[C@@H]3C)cc2)CC1` (single isomer, unassigned) [53 isomer II], the “Sa42 MIC” value in experiment [1] (ATCC 29213) came to 0.5 µg/mL. In addition, in experiment [2] (ATCC 49452), the “Efs201 MIC” value stood at 1 µg/mL. Also, the “Efm14 MIC” value in experiment [3] (ATCC 6569) is 1 µg/mL. Besides, in experiment [4] (ATCC 43300), the “Sa399 MIC” value is 1 µg/mL. In addition, the “Efm384 MIC” value in experiment [5] was 4 µg/mL. Moreover, the “Efs312 MIC” value in experiment [6] came out at 4 µg/mL. Besides, in experiment [7], the “Sa278 MIC” value worked out at 2 µg/mL. Also, the “C. diff MIC90” value in the experiment on Clostridium difficile was 1 µg/mL.
In the case of `CCCCCCOc1ccc(/C=C/C(=O)N[C@@H](Cc2c[nH]c3ccccc23)C(=O)N[C@H](CC(N)=O)C(=O)N[C@@H](CC(=O)O)C(=O)N[C@@H]2C(=O)NCC(=O)N[C@@H](CCCN)C(=O)N[C@@H](CC(=O)O)C(=O)N[C@H](C)C(=O)N[C@@H](CC(=O)O)C(=O)NCC(=O)N[C@H](CO)C(=O)N[C@@H]([C@H](C)CC(=O)O)C(=O)N[C@@H](CC(=O)c3ccccc3N)C(=O)O[C@@H]2C)cc1` [Compound 42], the “Sa42 MIC” value in experiment [1] (setting [8]) was found to be 0.5 µg/mL. In addition, the “Efs201 MIC” value in experiment [2] (setting [8]) amounted to 1 µg/mL. Moreover, in experiment [3] (setting [8]), the “Efm14 MIC” value was determined as 2 µg/mL. In addition, the “Sa399 MIC” value in experiment [4] (setting [8]) stood at 1 µg/mL. Besides, the “Efm384 MIC” value in experiment [5] stood at 8 µg/mL. Besides, the “Sa278 MIC” value in experiment [7] was 4 µg/mL. Moreover, the “C. diff MIC90” value with Clostridium difficile was 0.5 µg/mL.

The values above are taken from patent US20150337013A1, “NOVEL ANTIBACTERIAL AGENTS FOR THE TREATMENT OF GRAM POSITIVE INFECTIONS” (priority 2008, published 2015).
